In patent US20190134005A1 (BioMarin Pharmaceutical Inc., priority 2016, published 2019) one finds IC50 data, which are given here for 34 molecules.

The target of the experiment is T1, human CGT (Homo sapiens, UniProt Q16880).
T1 sequence (Q16880 21-541): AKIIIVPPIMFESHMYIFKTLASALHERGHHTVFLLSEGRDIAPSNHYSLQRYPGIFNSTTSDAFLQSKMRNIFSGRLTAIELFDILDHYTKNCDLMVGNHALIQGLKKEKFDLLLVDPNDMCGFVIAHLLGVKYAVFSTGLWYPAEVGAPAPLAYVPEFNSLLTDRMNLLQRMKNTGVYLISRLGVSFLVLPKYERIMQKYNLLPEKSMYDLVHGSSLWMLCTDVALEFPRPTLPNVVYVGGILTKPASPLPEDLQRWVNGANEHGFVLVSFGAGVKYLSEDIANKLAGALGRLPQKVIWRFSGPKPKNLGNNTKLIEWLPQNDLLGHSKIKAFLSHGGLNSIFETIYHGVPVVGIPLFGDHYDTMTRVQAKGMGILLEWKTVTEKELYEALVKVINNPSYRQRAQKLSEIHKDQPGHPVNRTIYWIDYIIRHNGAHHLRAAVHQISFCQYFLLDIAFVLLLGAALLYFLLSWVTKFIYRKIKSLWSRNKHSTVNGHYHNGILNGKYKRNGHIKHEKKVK
As to the kind of experiment: Assay 1: CGT Enzymatic Assay (RapidFire/MS/MS, 0.01% Tween 80). In kind it is biochemical. Conditions: Table 1, Compounds of Formula (I) and Formula (II), CGT enzymatic assay, read-out: IC50.

[1] abbreviates: C6-NBD-dihydro-galactosylceramide readout.

Where two headings read alike, the source gives them in different places. Where only a bound is given, the exact number is not on record here.

The term IC50 denotes the concentration needed to halve the response being measured. Take `Cc1ccc(C2(O)C(=O)N(c3ccc(Br)cc3)C(=O)N2c2ccc(Br)cc2)cc1` (stereo not shown) [Example 200, 1,3-bis(4-bromophenyl)-5-hydroxy-5-(p-tolyl)imidazolidine-2,4-dione]: the IC50 is 50000 to 100000 nM.
Regarding `CCCCC1(O)CN(c2ccc(Br)cc2)C(=O)N1c1ccc(Br)cc1` (stereo not shown) [Example 6, 1,3-bis(4-bromophenyl)-4-butyl-4-hydroxyimidazolidin-2-one], the IC50 is more than 50000 nM.
For the molecule `Cc1ccc(N2C(=O)N(c3ccc(Cl)cc3)C(O)(c3cccc(OC(F)(F)F)c3)C23COC3)cc1` (stereo not shown) [Example 311, 7-(4-chlorophenyl)-8-hydroxy-5-(p-tolyl)-8-(3-(trifluoromethoxy)phenyl)-2-oxa-5,7-diazaspiro[3.4]octan-6-one], the IC50 under setting [1] is less than 1000 nM.
Turning to `Cc1cccc(-c2cn(-c3ccc(Cl)cc3)c(=O)n2-c2ccc(Cl)cc2)c1` [Compound 259, 1,3-bis(4-chlorophenyl)-4-(m-tolyl)-1,3-dihydro-2H-imidazol-2-one], the IC50 is more than 50000 nM.
As to `CC[C@@H]1N(c2ccc(F)cc2)C(=O)N(c2ccc(F)cc2)C1(O)c1cccc(C#N)c1` (stereo partly drawn) [Compound 123-1, 3-((5S)-5-ethyl-1,3-bis(4-fluorophenyl)-4-hydroxy-2-oxoimidazolidin-4-yl)benzonitrile], the IC50 lay in the range of 1000 to 10000 nM.
The same measure, in the same setting: then `CCc1cccc(C2(O)[C@H](C)N(c3ccc(Cl)cc3)C(=O)N2c2ccc(Cl)cc2)c1` (stereo partly drawn) [Compound 69-1, (5S)-1,3-bis(4-chlorophenyl)-4-(3-ethylphenyl)-4-hydroxy-5-methylimidazolidin-2-one], with less than 1000 nM.
On the same count and under the same terms, for `Cc1cc(C#N)cc(C2(O)CN(c3ccc(Cl)cc3)C(=O)N2c2ccc(Cl)cc2)c1` (stereo not shown) [Compound 102, 3-(1,3-bis(4-chlorophenyl)-4-hydroxy-2-oxoimidazolidin-4-yl)-5-methylbenzonitrile] the value was 1000 to 10000 nM; for `O=C1N(c2ccc(Br)cc2)C(=O)C(O)(c2ccc(OCC3CC3)cc2)N1c1ccc(Br)cc1` (stereo not shown) [Example 184, 1,3-bis(4-bromophenyl)-5-(4-(cyclopropylmethoxy)phenyl)-5-hydroxyimidazolidine-2,4-dione], more than 50000 nM.
In the case of `CCC1N(c2ccc(Br)cc2)C(=O)N(c2ccc(Br)cc2)C1(O)c1cccc(OC(F)(F)F)c1` (stereo not shown) [Compound 83, 1,3-bis(4-bromophenyl)-5-ethyl-4-hydroxy-4-(3-(trifluoromethoxy)phenyl)imidazolidin-2-one], the IC50 is less than 1000 nM.
Take `CCCC1N(c2ccc(Cl)cc2)C(=O)N(c2ccc(Cl)cc2)C1(O)c1cccc(C)c1` (stereo not shown) [Compound 90, 1,3-bis(4-chlorophenyl)-4-hydroxy-5-propyl-4-(m-tolyl)imidazolidin-2-one]: the IC50 was less than 1000 nM.
In the case of `Cc1ccc(N2C(=O)N(c3ccc(C#N)cc3)C(O)(c3cccc(OC(F)(F)F)c3)C2(C)C)cc1` (stereo not shown) [Example 314, 4-(5-hydroxy-4,4-dimethyl-2-oxo-3-(p-tolyl)-5-(3-(trifluoromethoxy)phenyl)imidazolidin-1-yl)benzonitrile], under setting [1], the IC50 is less than 1000 nM.
`CC(=O)c1cccc(C2(O)C(C)N(c3ccc(Cl)cc3)C(=O)N2c2ccc(Cl)cc2)c1` (stereo not shown) [Compound 124, 4-(3-acetylphenyl)-1,3-bis(4-chlorophenyl)-4-hydroxy-5-methylimidazolidin-2-one]: the IC50 is less than 1000 nM.
Turning to `CCC[C@H]1N(c2ccc(Br)cc2)C(=O)N(c2ccc(Br)cc2)C1(O)c1cccc(C(F)(F)F)c1` (stereo partly drawn) [Compound 100-2, (5R)-1,3-bis(4-bromophenyl)-4-hydroxy-5-propyl-4-(3-(trifluoromethyl)phenyl)imidazolidin-2-one], the IC50 is less than 1000 nM.
As to `Cc1ccc(N2C(=O)N(c3ccc(C#N)cc3)C(C)(C)C2(O)c2cccc(OC(F)(F)F)c2)cc1` (stereo not shown) [Example 312, 4-(4-hydroxy-5,5-dimethyl-2-oxo-3-(p-tolyl)-4-(3-(trifluoromethoxy)phenyl)imidazolidin-1-yl)benzonitrile], the IC50 under setting [1] was less than 1000 nM.
Turning to `O=C1N(c2ccc(Cl)cc2)[C@@H](C2CCC2)C(O)(c2cccc(OC(F)(F)F)c2)N1c1ccc(Cl)cc1` (stereo partly drawn) [Example 191-1, (5S)-1,3-bis(4-chlorophenyl)-5-cyclobutyl-4-hydroxy-4-(3-(trifluoromethoxy)phenyl)imidazolidin-2-one], the IC50 is less than 1000 nM.
`CC1(C)N(c2ccc(Cl)cc2)C(=O)N(c2ccc(C#N)cc2)C1(O)c1cccc(OC(F)(F)F)c1` (stereo not shown) [Compound 273, 4-(3-(4-chlorophenyl)-5-hydroxy-4,4-dimethyl-2-oxo-5-(3-(trifluoromethoxy)phenyl)imidazolidin-1-yl)benzonitrile]: the IC50 under setting [1] was less than 1000 nM.
`Cc1csc(C2(O)[C@H](C)N(c3ccc(Br)cc3)C(=O)N2c2ccc(Br)cc2)c1` (stereo partly drawn) [Compound 97-1, (5S)-1,3-bis(4-bromophenyl)-4-hydroxy-5-methyl-4-(4-methylthiophen-2-yl)imidazolidin-2-one]: the IC50 lay in the range of 1000 to 10000 nM.
Regarding `CC[C@@H]1N(c2ccc(Br)cc2)C(=O)N(c2ccc(Br)cc2)C1(O)c1cccc(C)c1` (stereo partly drawn) [Compound 76-1, (5S)-1,3-bis(4-bromophenyl)-5-ethyl-4-hydroxy-4-(m-tolyl)imidazolidin-2-one], the IC50 is less than 1000 nM.
On to `CCCc1c(-c2cccc(OC(F)(F)F)c2)n(-c2ccc(Cl)cc2)c(=O)n1-c1ccc(Cl)cc1` [Compound 245, 1,3-bis(4-chlorophenyl)-4-propyl-5-(3-(trifluoromethoxy)phenyl)-1,3-dihydro-2H-imidazol-2-one], for which the IC50 was less than 1000 nM.
On to `Cc1ccc(N2C(=O)N(c3ccc(C#N)cc3)C(O)(c3cccc(C#N)c3)C23CCC3)cc1` (stereo not shown) [Compound 282, 3-(7-(4-cyanophenyl)-8-hydroxy-6-oxo-5-(p-tolyl)-5,7-diazaspiro[3.4]octan-8-yl)benzonitrile], for which the IC50 under setting [1] was less than 1000 nM.
As to `C[C@@H]1N(c2ccc(Cl)cc2)C(=O)N(c2ccc(Cl)cc2)C1(O)c1cccc(C(F)(F)F)c1` (single isomer, unassigned) [Compound 77-1], the 50% inhibitory concentration (IC50) was less than 1000 nM.
Consider `C[C@@]1(C(F)(F)F)N(c2ccc(Cl)cc2)C(=O)N(c2ccc(Cl)cc2)C1(O)c1cccc(OC(F)(F)F)c1` (single isomer, unassigned) [Example 159-2], for which the IC50 was less than 1000 nM.
As to `Cc1ccc(N2C(=O)N(c3ccc(Cl)cc3)C3(COC3)C2(O)c2cccc(C#N)c2)cc1` (stereo not shown) [Compound 298, 3-(5-(4-chlorophenyl)-8-hydroxy-6-oxo-7-(p-tolyl)-2-oxa-5,7-diazaspiro[3.4]octan-8-yl)benzonitrile], the IC50 under setting [1] is less than 1000 nM.
Take `CCC1(CC)N(c2ccc(Cl)cc2)C(=O)N(c2ccc(Cl)cc2)C1(O)c1cccc(C#N)c1` (stereo not shown) [Example 321, 3-(1,3-bis(4-chlorophenyl)-5,5-diethyl-4-hydroxy-2-oxoimidazolidin-4-yl)benzonitrile]: the IC50 under setting [1] is less than 1000 nM.
As for `CCCC1N(c2ccc(Br)cc2)C(=O)N(c2ccc(Br)cc2)C1(O)c1ccccc1` (stereo not shown) [Compound 51], the IC50 is less than 1000 nM.
Consider `C[C@@]1(C(F)(F)F)N(c2ccc(Cl)cc2)C(=O)N(c2ccc(Cl)cc2)C1(O)c1cccc(C#N)c1` (single isomer, unassigned) [Example 177-2], for which the concentration for half-maximal inhibition (IC50) is 1000 to 10000 nM.
Regarding `CC1(O)CN(c2ccc(Br)cc2)C(=O)N1c1ccc(Br)cc1` (stereo not shown) [Example 2, 1,3-bis(4-bromophenyl)-4-hydroxy-4-methylimidazolidin-2-one], the IC50 was more than 50000 nM.
Take `Cc1ccc(N2C(=O)N(c3ccc(Cl)cc3)C3(CCC3)C2(O)c2cccc(OC(F)(F)F)c2)cc1` (stereo not shown) [Example 333, 5-(4-chlorophenyl)-8-hydroxy-7-(p-tolyl)-8-(3-(trifluoromethoxy)phenyl)-5,7-diazaspiro[3.4]octan-6-one]: the IC50 under setting [1] is less than 1000 nM.
For the molecule `CCCc1c(-c2cccc(Cl)c2)n(-c2ccc(Br)cc2)c(=O)n1-c1ccc(Br)cc1` [Compound 250, 1,3-bis(4-bromophenyl)-4-(3-chlorophenyl)-5-propyl-1,3-dihydro-2H-imidazol-2-one], the half-maximal inhibitory concentration (IC50) was less than 1000 nM.
Take `CCCC1(C)N(c2ccc(Cl)cc2)C(=O)N(c2ccc(Cl)cc2)C1(O)c1cccc(C#N)c1` (stereo not shown) [Compound 291, 3-(1,3-bis(4-chlorophenyl)-4-hydroxy-5-methyl-2-oxo-5-propylimidazolidin-4-yl)benzonitrile]: the concentration for half-maximal inhibition (IC50) under setting [1] is less than 1000 nM.
Regarding `O=C1N(c2ccc(Cl)cc2)[C@]2(CCOC2)[C@@](O)(c2cccc(OC(F)(F)F)c2)N1c1ccc(Cl)cc1` [Compound 234-2, (4S,5S)-1,3-bis(4-chlorophenyl)-4-hydroxy-4-(3-(trifluoromethoxy)phenyl)-7-oxa-1,3-diazaspiro[4.4]nonan-2-one], the IC50 was less than 1000 nM.
Same read-out and setting: then `Cc1ccc(N2C(=O)N(c3ccc(C)cc3)C(O)(c3cccc(C#N)c3)[C@@H]2C)cc1` (single isomer, unassigned) [Compound 105-1], with 1000 to 10000 nM; and `CCC[C@H]1N(c2ccc(Br)cc2)C(=O)N(c2ccc(Br)cc2)C1(O)c1cccc(OC(F)(F)F)c1` (stereo partly drawn) [Compound 112-2, (5R)-1,3-bis(4-bromophenyl)-4-hydroxy-5-propyl-4-(3-(trifluoromethoxy)phenyl)imidazolidin-2-one], with less than 1000 nM.
For the molecule `CCC[C@H]1N(c2ccc(Cl)cc2)C(=O)N(c2ccc(Cl)cc2)C1(O)c1cccc(OC(F)(F)F)c1` (stereo partly drawn) [Compound 91-2, (5R)-1,3-bis(4-chlorophenyl)-4-hydroxy-5-propyl-4-(3-(trifluoromethoxy)phenyl)imidazolidin-2-one], the IC50 was less than 1000 nM.
